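Tested at 5 concentrations; 48 h exposure; 96-well plates; endpoints linearly interpolated, else capped at highest concentration. Abbreviation: GI50, concentration required for 50% inhibition of growth.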 Activity calls are given as the source filed them. No stated cut-off is given here; in the data, active = GI50 up to about 1.1 µM and inactive = higher.

Some test systems named below: HCT-116; HL-60; SW-620; NCI-H460; SN12C; EKVX; NCI-H23; T47D; CAKI-1; MOLT-4; SK-MEL-5; HOP-92; NCI-H226; MDA-N; SNB-75; A549; TK-10; LOX IMVI; SR.
What all share (assay): NCI tumour cell line growth inhibition, 48 h

Take `O=C1Nc2ccc(Br)cc2C1=Nc1cccnc1`: the GI50 in the assay with HCT-116 was 20.1 µM (inactive); in the assay on HL-60, 11.8 µM (inactive); with SW-620, 17.8 µM (inactive); in the assay on NCI-H460 it was > 100 µM (inactive); in the assay with SN12C, 18.4 µM (inactive); in the assay with EKVX it was 24.3 µM (inactive). Besides, the GI50 is 20.7 µM (inactive) in the assay with NCI-H23; 20.6 µM (inactive) in the assay with T47D; 20.7 µM (inactive) with CAKI-1; 22.5 µM (inactive) in the assay with MOLT-4; 17.8 µM (inactive) with SK-MEL-5; > 100 µM (inactive) in the assay on HOP-92. Further, the GI50 in the assay with NCI-H226 is 31.4 µM (inactive); in the assay with MDA-N, 17 µM (inactive); in the assay with SNB-75, > 100 µM (inactive); in the assay with A549 it was 48.4 µM (inactive); in the assay on TK-10, 57.5 µM (inactive); in the assay on LOX IMVI, 15.7 µM (inactive).
On to `CCN1C(=O)CS/C1=N\NC(=O)CSc1nc2ccccc2c(=O)n1CC`, for which the GI50 in the assay with HCT-116 is > 100 µM (inactive); with HL-60, 96.4 µM (inactive); in the assay on SW-620 it was > 100 µM (inactive); with SR, > 100 µM (inactive); in the assay with NCI-H460, 10.3 µM (inactive); with SN12C, > 100 µM (inactive). The GI50 in the assay with EKVX, in the assay with NCI-H23, in the assay on T47D, in the assay on CAKI-1, in the assay on MOLT-4 and in the assay on SK-MEL-5 was > 100 µM (inactive) in each case. Besides, the GI50 with NCI-H226, in the assay on MDA-N, in the assay with SNB-75, with A549, in the assay with TK-10 and with LOX IMVI was > 100 µM (inactive) in each case.
With `Cc1ccc(C2SCc3nc4ccccc4n32)cc1` (stereo not drawn), the GI50 in the assay with HCT-116 was 3.11 µM (inactive); in the assay on HL-60 it was 1.6 µM (inactive); in the assay with SW-620 it was 4.84 µM (inactive); in the assay on NCI-H460 it was 3.76 µM (inactive); with SN12C, 3.01 µM (inactive); in the assay on EKVX it was 5.35 µM (inactive). Besides, the GI50 was 2.72 µM (inactive) in the assay with NCI-H23; 10.3 µM (inactive) in the assay on T47D; 1.52 µM (inactive) in the assay with CAKI-1; 2.96 µM (inactive) with MOLT-4; 1.53 µM (inactive) in the assay on SK-MEL-5; 3.74 µM (inactive) in the assay with HOP-92. The GI50 in the assay on NCI-H226 was 1.88 µM (inactive); in the assay on MDA-N, 0.407 µM (active); in the assay with SNB-75 it was 0.0103 µM (active); in the assay with A549, 6.43 µM (inactive); in the assay on TK-10, 3.54 µM (inactive); in the assay with LOX IMVI, 4.47 µM (inactive).
On to `CC1=NN(C(=O)CC(=O)Nc2cccc(Cl)c2)C(=O)C1/N=N/c1ccc(C(=O)O)cc1` (stereo not drawn), for which the GI50 is > 100 µM (inactive) with HCT-116; > 100 µM (inactive) with HL-60; > 100 µM (inactive) in the assay on SW-620; 48.9 µM (inactive) with SR; > 100 µM (inactive) in the assay with NCI-H460; > 100 µM (inactive) in the assay with SN12C. Also, the GI50 in the assay with EKVX was > 100 µM (inactive); in the assay with NCI-H23, > 100 µM (inactive); in the assay with T47D, 37.2 µM (inactive); in the assay with CAKI-1, > 100 µM (inactive); with MOLT-4 it was 78.5 µM (inactive); in the assay on SK-MEL-5 it was > 100 µM (inactive). For the same molecule, the GI50 with HOP-92 is 27.7 µM (inactive); in the assay with MDA-N, > 100 µM (inactive); in the assay with SNB-75 it was 52.1 µM (inactive); in the assay with A549 it was > 100 µM (inactive); in the assay with TK-10 it was > 100 µM (inactive); with LOX IMVI, 82.4 µM (inactive).
Turning to `CC1=NN(c2cccc(Cl)c2)C(=N/c2nc3ccccc3s2)/C1=C\C=C\c1ccccc1`, the GI50 in the assay with HCT-116 is 28.2 µM (inactive); with HL-60, 13.8 µM (inactive); in the assay on SW-620, > 100 µM (inactive); with SR it was 0.359 µM (active); with NCI-H460, 29.7 µM (inactive); in the assay on EKVX, 47.6 µM (inactive). The GI50 with NCI-H23 is 32.1 µM (inactive); in the assay on T47D, 46.7 µM (inactive); with CAKI-1, 28.4 µM (inactive); with MOLT-4 it was 0.369 µM (active); in the assay with SK-MEL-5, 20.6 µM (inactive); in the assay on NCI-H226 it was 79.8 µM (inactive). Besides, the GI50 in the assay on MDA-N was 37.2 µM (inactive); with TK-10, 34.9 µM (inactive); in the assay with LOX IMVI, 32.2 µM (inactive).
Take `Cn1c(=O)oc2cc(C(=O)CN3CCN(Cc4ccc5c(c4)OCO5)CC3)c(Cl)cc21`: the GI50 in the assay on HCT-116, with HL-60, in the assay on SR, with NCI-H460, in the assay on SN12C and with NCI-H23 was > 100 µM (inactive) in each case. Moreover, the GI50 with T47D, in the assay with CAKI-1, in the assay with MOLT-4, in the assay on SK-MEL-5, in the assay with MDA-N and in the assay on SNB-75 was > 100 µM (inactive) each time. In addition, the GI50 with LOX IMVI was 80.4 µM (inactive).
For the molecule `N#CCC(=O)N/N=C\C(O)C(O)C(O)C(O)CO` (stereo not drawn), the GI50 with HL-60, in the assay on SW-620, with SR, with NCI-H460, in the assay on SN12C and in the assay on NCI-H23 was > 100 µM (inactive) throughout. The GI50 in the assay with T47D, in the assay with CAKI-1, in the assay on MOLT-4, in the assay on SK-MEL-5, in the assay with NCI-H226 and in the assay on MDA-N was > 100 µM (inactive) in each case. Also, the GI50 in the assay on SNB-75, with A549, with TK-10 and in the assay on LOX IMVI was > 100 µM (inactive) in each case.
With `Nc1nc(Cl)cc(NCC2(CO)CCC(CCc3ccccc3)C2)n1` (stereo not drawn), the GI50 in the assay with HCT-116 is 2.29 µM (inactive); in the assay on HL-60, 6.21 µM (inactive); with SW-620, 2.02 µM (inactive); in the assay with NCI-H460 it was 12 µM (inactive); in the assay with SN12C, 16 µM (inactive); in the assay on EKVX, 0.771 µM (active). Besides, the GI50 in the assay on NCI-H23 is 2.88 µM (inactive); in the assay on T47D, 0.877 µM (active); with CAKI-1, 13.5 µM (inactive); with MOLT-4, 2.7 µM (inactive); in the assay with SK-MEL-5, 0.0665 µM (active); in the assay on HOP-92 it was 15.5 µM (inactive). The GI50 with NCI-H226 was 16.5 µM (inactive); in the assay with MDA-N it was 14.2 µM (inactive); with SNB-75 it was 20.8 µM (inactive); in the assay with A549 it was 12.6 µM (inactive); with TK-10, 18 µM (inactive); in the assay with LOX IMVI, 7.89 µM (inactive).
Take `Cc1cc(C)c2c(n1)S(=O)(=O)N(CCCN1CCN(c3cccc(Cl)c3)CC1)C(C(=O)c1ccccc1)=C2O`: the GI50 with HCT-116 is 24.2 µM (inactive); in the assay on HL-60, 31.6 µM (inactive); in the assay on SW-620, 31.8 µM (inactive); in the assay with SR, 17.1 µM (inactive); with NCI-H460 it was 18.5 µM (inactive); with SN12C, 20 µM (inactive). The GI50 in the assay with EKVX is 26 µM (inactive); with NCI-H23, 28.4 µM (inactive); in the assay with T47D, 38.8 µM (inactive); in the assay on CAKI-1, 12.9 µM (inactive); in the assay on MOLT-4, 7.82 µM (inactive); in the assay with SK-MEL-5 it was 21.6 µM (inactive). For the same molecule, the GI50 was 25.8 µM (inactive) in the assay with HOP-92; 25.9 µM (inactive) with MDA-N; 30.4 µM (inactive) in the assay on A549; 27 µM (inactive) in the assay with TK-10; 6.01 µM (inactive) in the assay with LOX IMVI.
Turning to `CC(C)(C)OC(=O)N1CCCC1=O`, the GI50 with HCT-116, in the assay with HL-60, in the assay with SW-620, with SR, in the assay with NCI-H460 and in the assay with SN12C was > 10 µM (inactive) in each case. Also, the GI50 in the assay with EKVX, in the assay with NCI-H23, in the assay with T47D, in the assay on MOLT-4, in the assay on SK-MEL-5 and in the assay on HOP-92 was > 10 µM (inactive) in each case. Besides, the GI50 in the assay with NCI-H226, in the assay with MDA-N, in the assay on SNB-75, with A549, with TK-10 and in the assay with LOX IMVI was > 10 µM (inactive) in each case.
Take `COc1cccc(C2c3cc4c(cc3OC(N3CCCC3)C2c2ccccc2)OCO4)c1O` (stereo not drawn): the GI50 in the assay with HCT-116 was 4.21 µM (inactive); with SW-620, 7.78 µM (inactive); in the assay with SR, 4.76 µM (inactive); in the assay on NCI-H460 it was 8.22 µM (inactive); in the assay with SN12C, 12.7 µM (inactive); in the assay with EKVX, 16.6 µM (inactive). In addition, the GI50 in the assay with NCI-H23 was 14 µM (inactive); with T47D, 5.97 µM (inactive); with CAKI-1 it was 2.88 µM (inactive); with MOLT-4, 3.85 µM (inactive); with SK-MEL-5, 10.8 µM (inactive); in the assay on MDA-N, 8.18 µM (inactive). Moreover, the GI50 with SNB-75 was 5.74 µM (inactive); with A549 it was 11.6 µM (inactive); with TK-10 it was 13.7 µM (inactive); with LOX IMVI it was 12.4 µM (inactive).
For `COC(=O)c1cc(C)ccc1C1CN=NC12Cc1ccc(C)cc1C2=O` (stereo not drawn), the GI50 was 27.1 µM (inactive) in the assay on HCT-116; 13 µM (inactive) in the assay on HL-60; 53.2 µM (inactive) with SW-620; 34.1 µM (inactive) in the assay on NCI-H460; 44.9 µM (inactive) with SN12C; 46.5 µM (inactive) in the assay with EKVX. In addition, the GI50 in the assay with NCI-H23 is 34 µM (inactive); in the assay on T47D, 31.8 µM (inactive); in the assay on CAKI-1, 83.4 µM (inactive); with MOLT-4, 23.1 µM (inactive); in the assay with SK-MEL-5, 15.5 µM (inactive); in the assay on HOP-92, 19.1 µM (inactive). Moreover, the GI50 is 24.8 µM (inactive) in the assay on NCI-H226; 31.6 µM (inactive) in the assay on MDA-N; 30.3 µM (inactive) in the assay with SNB-75; 29.8 µM (inactive) with A549; 61 µM (inactive) in the assay with TK-10; 31.2 µM (inactive) in the assay with LOX IMVI.

(Values after ChEMBL document CHEMBL1201862, “PubChem BioAssay data set” (2004).)
